What was measured:
[1] = system: MCF7 cells, DNA-damage (CPD) sites; assay: Recruitment of GFP-Cdt2 constructs to DNA-damage sites in MCF7 cells; assay type: cell-based, human; conditions: MCF7, UV-C 50 J/m^2, GFP fusions; two independent experiments
Excerpt: Figure 2. The C-terminus of Cdt2 mediates Cdt2 recruitment to sites of damage. (A) A schematic drawing of the domain structure of Cdt2 and constructs used. (B) The C-terminal, but not the N-terminal, part of Cdt2 mediates recruitment to DNA damage sites. MCF7 cells transfected with the indicated plasmids were locally UV-C irradiated (50 J/m^2 through 5 μm pore diameter micropore filters), and recruitment of each Cdt2 construct to sites of damage was examined by staining with α-CPD antibody and GFP signal.
For Western blotting, whole-cell lysates were prepared by lysing cell pellets directly in SDS–PAGE buffer. For immunofluorescence, U2OS or HEK293 cells were fixed in 4% paraformaldehyde (PFA; WAKO) for 10 min, permeabilized in 0.25% (vol/vol) Triton X-100 in PBS, and stained with the indicated antibodies as described previously. […] For cyclobutane pyrimidine dimer (CPDs) staining, MCF7 and HeLa cells were fixed in 4% PFA for 10 min, permeabilized in 0.3% Triton X-100 in PBS, and then incubated in 0.5 N NaOH for 5 min for DNA denaturation before immunofluorescence. Alexa488-conjugated anti-mouse and […] anti-rabbit antibodies were used as secondary antibodies with Hoechst 33258 to visualize DNA. […] Protein levels were analysed by ImageJ software.
We used a method to induce DNA photoproducts within localized areas of the cell nucleus as described in Ishii et al (2010). To perform micropore UV irradiation, cells were cultured on cover slips, washed twice with PBS, and subsequently covered with an isopore polycarbonate membrane filter (Millipore) with a pore size of either 3 or 5 μm in diameter, and irradiated. UV irradiation was achieved using a UV lamp (SUV-16, As One, Japan) with a dose rate of 0.4 J/m^2·s, which was monitored with a UV radiometer (UVX Radiometer, UVP) at 254 nm, or with a UV box equipped with a UV-C lamp monitored with a VLX-3W radiometer (Vilber Lourmat) at 254 nm (CX-254 sensor). The filter was removed and cells were either fixed or cultured for the indicated time before fixation, and processed for immunofluorescence. […]

DDB1, Cul4A = assay: Co-immunoprecipitation of DDB1 / Cul4A with FLAG-tagged Cdt2 constructs; assay type: cell-based, human; conditions: anti-FLAG IP, cross-linked cells
Excerpt: Before cell lysate preparation, cells were cross-linked.
Figure 3. […] HEK293 cells were transfected with plasmids expressing the indicated Cdt2 fused to a C-terminal FLAG tag, cross-linked, and precipitated with anti-FLAG antibodies (arrows). […] The bands in the blank lanes for Cul4A blotting correspond to the cross-reacting bands to pre-stained marker. […] HEK293 cells were transfected with the indicated plasmids and treated as in A. * indicates nonspecific bands derived from IgGs. (C) A schematic drawing of the Cdt2 domain structure highlighting the C-terminal PIP box and a sequence alignment of PIP boxes in various organisms. The alanine-changed PIP box mutant of Cdt2 was shown (PIP-3A) together with Cdt1 PIP box. (D) HEK293 cells were transfected with Cdt2^WT or PIP box mutant (Cdt2^PIP-3A) C-terminally fused to a FLAG tag, treated as in B, and Cdt2 was precipitated with anti-FLAG resin.
Control or Cdt2-FLAG expressing 293 cells that were UV irradiated (50 J/m^2), or not UV irradiated, or in the middle S phase (5 h after release from aphidicolon arrest) were fixed with 0.02% formaldehyde for 10 min, lysed using 0.1% Triton X-100-containing modified cytoskeleton (mCSK) buffer (10 mM Pipes, pH 7.9, 100 mM NaCl, 300 mM sucrose, 0.1% [vol/vol] Triton X-100, 1 mM phenylmethylsulfonyl fluoride, 10 mM β-glycerophosphate, 1 mMNa3VO4, 10 mM NaF), and then sonicated. After centrifugation (120,000g, Beckman Type 45Ti rotor, for 20 min at 4°C), the supernatants were mixed with anti-FLAG antibody-conjugated magnetic beads (M8823; Sigma-Aldrich) for 1 h at 4°C to obtain immunoprecipitates. The precipitate was washed with ice-cold 0.1% Triton X-100 containing mCSK buffer and subsequently suspended in SDS sample buffer.

Molecule | recruitment to DNA-damage sites [1] | binding to DDB1 (and Cul4A) (DDB1, Cul4A)
Cdt2: Cdt2 tagged with GFP, transiently expressed in MCF7 cells | robustly detected at DNA-damage sites | 
Cdt2^PIP-3A: Cdt2 with I709, Y712, and F713 all mutated to alanine (protein, UniProt Q9NZJ0 1-730, looked up, variant I709A Y712A F713A, FLAG tag, Cdt2 with I709, Y712, and F713 all mutated to alanine) Denticleless protein homolog: MLFNSVLRQPQLGVLRNGWSSQYPLQSLLTGYQCSGNDEHTSYGETGVPVPPFGCTFSSAPNMEHVLAVANEEGFVRLYNTESQSFRKKCFKEWMAHWNAVFDLAWVPGELKLVTAAGDQTAKFWDVKAGELIGTCKGHQCSLKSVAFSKFEKAVFCTGGRDGNIMVWDTRCNKKDGFYRQVNQISGAHNTSDKQTPSKPKKKQNSKGLAPSVDFQQSVTVVLFQDENTLVSAGAVDGIIKVWDLRKNYTAYRQEPIASKSFLYPGSSTRKLGYSSLILDSTGSTLFANCTDDNIYMFNMTGLKTSPVAIFNGHQNSTFYVKSSLSPDDQFLVSGSSDEAAYIWKVSTPWQPPTVLLGHSQEVTSVCWCPSDFTKIATCSDDNTLKIWRLNRGLEEKPGGDKLSTVGWASQKKKESRPGLVTVTSSQSTPAKAPRAKCNPSNSSPSSAACAPSCAGDLPLPSNTPTFSIKTSPAKARSPINRRGSVSSVSPKPPSSFKMSIRNWVTRTPSSSPPITPPASETKIMSPRKALIPVSQKSSQAEACSESRNRVKRRLDSSCLESVKQKCVKSCNCVTELDGQVENLHLDLCCLAGNQEDLSKDSLGPTKSSKIEGAGTSISEPPSPISPYASESCGTLPLPLRPCGEGSEMVGKENSSPENKNWLLAMAAKRKAENPSPRSPSSQTPNSRRQSGKKLPSPVTITPSSMRKACTAAHRKSQEDFCGPEHSTEL |  | without significantly affecting interaction with Cul4A and DDB1

— PMC6312923 (Life Science Alliance, 2018)
